Entries after “also recorded” stand apart in the source; their conditions may differ.
Columns and labels:
[1] = system: Influenza-specific antibody; assay: Serum influenza-specific antibody by ELISA in experimental influenza model; conditions: influenza 6.5 Lg EID50 IN; 100 mg/kg IP QD 12 days; Day 12; compared to influenza-infected/vehicle treated controls
[2] = system: mouse model of cytokine storm; assay: Evans Blue dye (EBD) assay of lung after intranasal LPS challenge; type: in vivo
[3] = system: total IgM; assay: Serum total IgM by ELISA in experimental influenza model; conditions: influenza 6.5 Lg EID50 IN; 100 mg/kg IP QD 12 days; Day 12; compared to influenza-infected/vehicle treated controls
[4] = system: IL-6; assay: Plasma IL-6 level by ELISA after intranasal LPS challenge; type: in vivo, mouse; conditions: Example 2; 100 mg/kg IP, all dosing paradigms; comparison to LPS/vehicle group
Experimental: (§1) Intranasal administration of LPS: The LPS challenge was carried out according to Ma et al. (2019).
(§2) Compound dosing: Animals in groups 2-5 were dosed according to the Table 2 for 6 days. Group 3 animals received 6 doses of MLR-1023 QD and a 7th dose 1 hour prior to LPS. Group 4 animals received 6 doses of MLR-1023 QD and Vehicle 1 hour prior to LPS. Group 5 animals received 6 Vehicle doses QD and 1 dose of MLR-1023 1 hour prior to LPS. On day 7, 1 hour after the last dose, animals were intranasally treated with LPS. Six hours after the instillation of LPS, animals received an IV dose of EBD. Thirty minutes later, animals were sacrificed, and the lungs were collected as previously described.

[5] = in vivo; conditions: mouse
[6] = system: total IgG; assay: Serum total IgG by ELISA in experimental influenza model; conditions: influenza 6.5 Lg EID50 IN; 100 mg/kg IP QD 12 days; Day 12; compared to influenza-infected/vehicle treated controls
[7] = system: TNF-alpha; assay: Plasma TNF-alpha level by ELISA after intranasal LPS challenge; type: in vivo, mouse; conditions: Example 2; 100 mg/kg IP, all dosing paradigms; comparison to LPS/vehicle group
Experimental: as §1, §2

[8] = system: mouse model of cytokine storm; assay: Lung Wet/Dry ratio assay after intranasal LPS challenge; type: in vivo; conditions: LPS 50 μg IN, compared to LPS/Vehicle group
Experimental: Intranasal administration of LPS: The LPS challenge was carried out according to Ma et al., Inflammation, 2019, 42, 1901-1912.
Compound dosing: Animals in groups 2-5 were dosed according to the Table 1 for 6 days. On day 7, 1 hour after the last dose, animals were intranasally treated with LPS. Dexamethasone (20 mg/kg PO) was administered 1 hour prior to LPS treatment. Six hours after the instillation of LPS, animals received an IV dose of EBD. Thirty minutes later, animals were sacrificed, and the lungs were collected as previously described.
as §1, §2

Cc1cccc(Oc2cnc(=O)[nH]c2)c1 [MLR-1023, tolimidone]
serum influenza-specific antibody level [1]: did not alter
Evans Blue content in the lung ([2]; Example 1, C57Bl/6J male mice, LPS 50 μg IN, MLR-1023 30 and 100 mg/kg IP QD 7 days, last dose 1 hr prior to LPS, dexamethasone 20 mg/kg PO 1 hr prior to LPS, compared to LPS/Vehicle group): greater than that of dexamethasone and comparable to that of animals that received no LPS; also recorded: significant dose dependent decrease
Evans Blue dye content in the lungs (plasma extravasation) ([2]; Example 2, 100 mg/kg IP QD, 6 doses plus acute dose 1 hour before LPS challenge (7×), relative to the 6-dose paradigm): comparable level of reduced plasma extravasation
Evans Blue dye content in the lungs ([2]; Example 2, 100 mg/kg IP QD, 6 doses, vehicle 1 hr prior to LPS (6×), compared to LPS/Vehicle group): significant decrease
Evans Blue dye content in the lungs (plasma extravasation) ([2]; Example 2, 100 mg/kg IP, single dose 1 hr prior to LPS challenge (1×)): did not yield reduction
serum total IgM level [3]: did not alter
plasma IL-6 concentration [4]: did not produce significant effects
half-life [5]: ~1.5 h
serum total IgG level [6]: did not alter
plasma TNF-α concentration [7]: did not produce significant effects
wet/dry ratio of the lung ([8]; Example 1, C57Bl/6J male mice, MLR-1023 30 and 100 mg/kg IP QD 7 days, last dose 1 hr prior to LPS, dexamethasone 20 mg/kg PO 1 hr prior to LPS): significant dose dependent decrease
wet/dry ratio of the lung ([8]; Example 2, 100 mg/kg IP, all dosing paradigms (7×, 6×, 1×)): significant decrease
